# Measured values taken from ChEMBL document CHEMBL1201862, “PubChem BioAssay data set” (2004).
# Calls of active or inactive are those of the source.
# Assays:
# [1] = target: Cyclin-dependent kinase 5/CDK5 activator 1 (Homo sapiens, UniProt Q00535); assay: blockade of human CDK5 activity – biochemical, cherry-picked samples, set 2, dose response (AID 504545)
# [2] = THP-1 cell cytotoxicity, dose response, cytotoxicity control for non-replicating M. tuberculosis project (AID 489025); type: functional
# [3] = A High Throughput Confirmatory Assay used to Identify Novel Compounds that Inhibit Mycobacterium Tuberculosis in the absence of Glycerol.; type: functional
# [4] = microbe, parasite or virus in culture; type: functional; conditions: Mycobacterium tuberculosis
# cells [5] = type: functional
# [6] = HepG2 cell cytotoxicity, dose response, cytotoxicity control for non-replicating M. tuberculosis project (AID 489018); type: functional; conditions: Mycobacterium tuberculosis
# [7] = mitochondrial function rescue without frataxin homolog – Friedreich's ataxia, plus single-dose screen, dose response (AID 1465); type: functional;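 further: yeast depleted of Yfh1p frataxin homolog grown on glycerol needing respiration; WST-1 tetrazolium dye reduction as measure of cellular dehydrogenase metabolic activity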
# [8] = target: G-protein coupled receptor 35 (Homo sapiens, UniProt Q9HC97); assay: inhibition of zaprinast-stimulated GPR35 beta-arrestin translocation – imaging, U2OS, beta-arrestin-GFP, zaprinast agonist, primary screen (AID 2058); type: functional;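 further: antagonist potency meaning inhibition of agonist-induced arrestin redistribution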
# Sequence of G-protein coupled receptor 35 (Q9HC97 whole entry): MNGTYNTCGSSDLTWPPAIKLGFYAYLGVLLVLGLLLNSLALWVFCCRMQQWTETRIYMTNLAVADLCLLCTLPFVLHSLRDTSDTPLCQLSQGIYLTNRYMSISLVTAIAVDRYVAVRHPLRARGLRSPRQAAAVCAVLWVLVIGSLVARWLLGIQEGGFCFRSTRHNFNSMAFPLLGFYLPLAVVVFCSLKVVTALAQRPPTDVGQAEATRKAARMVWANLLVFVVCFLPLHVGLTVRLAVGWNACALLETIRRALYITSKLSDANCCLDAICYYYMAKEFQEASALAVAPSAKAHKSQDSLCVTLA
# Insulin-degrading enzyme = target: T1, Insulin-degrading enzyme (Homo sapiens, UniProt P14735); assay: Dose Response: Fluorescence polarization-based cell-based high throughput dose response assay for inhibitors of insulin-degrading enzyme (IDE). [Related pubchem assays: 434962 (Primary screen (IDE inhibitors in singlicate)), 449730 (Counterscreen (Cytotoxicity in triplicate)), 435028 (Confirmation (IDE inhibitors in triplicate)), 434984 (Summary …; type: functional
# T1 sequence (P14735 whole entry): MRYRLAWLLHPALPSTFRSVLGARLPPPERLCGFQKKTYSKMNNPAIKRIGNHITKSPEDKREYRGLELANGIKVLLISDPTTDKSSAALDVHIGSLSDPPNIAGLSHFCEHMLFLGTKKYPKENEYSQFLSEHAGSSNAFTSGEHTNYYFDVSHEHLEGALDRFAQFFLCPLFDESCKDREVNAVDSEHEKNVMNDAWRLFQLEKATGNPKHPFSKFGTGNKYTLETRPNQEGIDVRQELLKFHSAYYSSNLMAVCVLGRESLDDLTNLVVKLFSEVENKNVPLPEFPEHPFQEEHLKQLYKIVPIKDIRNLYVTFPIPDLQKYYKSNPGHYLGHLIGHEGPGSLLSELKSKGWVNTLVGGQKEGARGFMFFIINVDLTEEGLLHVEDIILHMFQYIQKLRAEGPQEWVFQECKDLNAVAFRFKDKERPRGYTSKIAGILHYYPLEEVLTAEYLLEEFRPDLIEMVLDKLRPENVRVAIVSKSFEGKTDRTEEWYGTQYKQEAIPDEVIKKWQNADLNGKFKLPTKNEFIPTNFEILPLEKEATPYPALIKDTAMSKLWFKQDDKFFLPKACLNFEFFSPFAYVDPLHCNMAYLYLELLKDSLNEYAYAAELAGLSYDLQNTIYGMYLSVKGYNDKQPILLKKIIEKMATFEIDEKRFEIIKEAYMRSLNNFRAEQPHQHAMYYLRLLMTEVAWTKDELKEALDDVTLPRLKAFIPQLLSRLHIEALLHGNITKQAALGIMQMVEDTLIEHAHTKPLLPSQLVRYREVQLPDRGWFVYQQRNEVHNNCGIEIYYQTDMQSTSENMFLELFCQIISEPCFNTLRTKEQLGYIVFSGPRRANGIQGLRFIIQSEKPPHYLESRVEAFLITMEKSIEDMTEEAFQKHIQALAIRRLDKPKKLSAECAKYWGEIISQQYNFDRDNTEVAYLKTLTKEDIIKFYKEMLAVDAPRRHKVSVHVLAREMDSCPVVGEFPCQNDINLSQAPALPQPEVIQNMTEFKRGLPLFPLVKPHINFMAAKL
# [9] = Counterscreen for IDE inhibitors: Luminescence-based cell-based high throughput dose response assay to identify compounds that are cytotoxic to HEK cells. [Related pubchem assays: 434962 (Primary screen (IDE inhibitors in singlicate)), 449730 (Counterscreen (Cytotoxicity in triplicate)), 435028 (Confirmation (IDE inhibitors in triplicate)) …; type: functional; conditions: HEK293
# [10] = target: Delta-type opioid receptor (Homo sapiens, UniProt P41143); assay: SAR Analysis of Antagonists of the DOR Receptor using an Image-Based Assay - Set 3. [Related pubchem assays (depositor defined):AID1777, AID1785]; type: functional;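 further: U2OS cells expressing DOR1 and beta-arrestin GFP stimulated with 100 nM SNC80; imaging of GFP-tagged beta-arrestin moving into spots after receptor activation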
# Sequence of Delta-type opioid receptor (P41143 whole entry): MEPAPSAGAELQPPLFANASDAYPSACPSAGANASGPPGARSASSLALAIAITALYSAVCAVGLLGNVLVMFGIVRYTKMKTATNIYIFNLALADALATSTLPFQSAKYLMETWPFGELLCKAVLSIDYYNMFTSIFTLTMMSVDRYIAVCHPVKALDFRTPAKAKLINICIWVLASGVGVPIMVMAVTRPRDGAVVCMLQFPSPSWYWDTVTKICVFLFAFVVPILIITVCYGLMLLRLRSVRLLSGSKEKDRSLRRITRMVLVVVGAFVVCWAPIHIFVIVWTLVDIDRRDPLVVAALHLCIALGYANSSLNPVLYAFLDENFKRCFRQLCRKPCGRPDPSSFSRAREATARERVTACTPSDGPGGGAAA
# [11] = target: T2, Kappa-type opioid receptor (Homo sapiens, UniProt P41145); assay: SAR analysis of small molecule antagonists of the kappa opioid receptor via a luminescent beta-arrestin assay - Set 4. [Related pubchem assays (depositor defined):AID1777, AID1778, AID1785, AID1786, AID1966, AID2133, AID2136, AID2285]; type: functional
# T2 sequence (P41145 whole entry): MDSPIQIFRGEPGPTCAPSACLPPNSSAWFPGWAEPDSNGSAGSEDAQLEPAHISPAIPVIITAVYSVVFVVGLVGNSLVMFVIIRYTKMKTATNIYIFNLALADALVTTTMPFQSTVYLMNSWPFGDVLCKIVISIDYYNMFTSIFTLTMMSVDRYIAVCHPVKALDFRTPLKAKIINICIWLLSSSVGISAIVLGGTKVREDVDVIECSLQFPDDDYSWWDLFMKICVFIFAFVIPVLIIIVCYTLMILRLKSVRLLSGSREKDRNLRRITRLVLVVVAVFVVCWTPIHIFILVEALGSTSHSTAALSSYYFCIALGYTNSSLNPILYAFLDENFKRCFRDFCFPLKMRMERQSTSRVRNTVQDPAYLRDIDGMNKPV
# [12] = target: T2, Kappa-type opioid receptor; assay: SAR analysis of small molecule antagonists of the kappa opioid receptor via a luminescent beta-arrestin assay - Set 6. [Related pubchem assays (depositor defined):AID1777, AID1778, AID1785, AID1786, AID1966, AID2133, AID2136, AID2285]; type: functional
# Mu-type opioid receptor = Mu-type opioid receptor (Homo sapiens, UniProt P35372); assay: SAR Analysis of Antagonists of the MOR Receptor using an Image-Based Assay - Set 3. [Related pubchem assays (depositor defined):AID1777, AID1785, AID1786, AID1966, AID2133, AID2136, AID2284, AID2285, AID2420]; type: functional
# Sequence of Mu-type opioid receptor (P35372 whole entry): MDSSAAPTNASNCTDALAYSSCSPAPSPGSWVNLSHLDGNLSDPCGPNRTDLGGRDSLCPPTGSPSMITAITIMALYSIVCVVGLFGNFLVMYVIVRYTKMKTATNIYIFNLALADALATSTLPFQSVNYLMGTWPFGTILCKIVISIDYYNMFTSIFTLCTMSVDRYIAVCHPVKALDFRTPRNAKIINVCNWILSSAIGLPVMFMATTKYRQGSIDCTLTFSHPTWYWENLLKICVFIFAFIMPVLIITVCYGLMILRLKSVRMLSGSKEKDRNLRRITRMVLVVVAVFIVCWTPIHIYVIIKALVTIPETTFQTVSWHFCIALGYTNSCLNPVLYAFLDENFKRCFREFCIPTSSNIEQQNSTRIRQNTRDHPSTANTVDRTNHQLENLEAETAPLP
# [13] = target: T2, Kappa-type opioid receptor; assay: SAR analysis of Antagonists of the Kappa Opioid Receptor (KOR) using an Image-Based Assay - Set 4. [Related pubchem assays (depositor defined):AID1777, AID1785]; type: functional
# [14] = target: T3, Neuropeptides B/W receptor type 1 (Homo sapiens, UniProt P48145); assay: human NPBW1 receptor blockade, IC50 – cell-based, fluorescence, dose response, late-stage follow-up (AID 463251); type: functional
# T3 sequence (P48145 whole entry): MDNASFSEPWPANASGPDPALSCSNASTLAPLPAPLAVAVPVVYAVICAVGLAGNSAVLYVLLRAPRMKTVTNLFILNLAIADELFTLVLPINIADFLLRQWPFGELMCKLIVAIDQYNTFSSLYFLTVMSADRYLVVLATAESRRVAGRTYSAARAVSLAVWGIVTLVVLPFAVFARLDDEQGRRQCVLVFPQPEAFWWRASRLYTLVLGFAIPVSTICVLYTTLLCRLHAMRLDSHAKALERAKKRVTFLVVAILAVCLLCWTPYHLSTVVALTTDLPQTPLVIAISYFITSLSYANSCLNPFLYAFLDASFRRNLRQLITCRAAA
# [15] = target: Melanin-concentrating hormone receptor 1 (Homo sapiens, UniProt Q99705); assay: Late-stage fluorescence-based counterscreen for antagonists of the G-protein coupled receptor 7 (GPR7): cell-based dose response assay to identify antagonists of the melanin-concentrating hormone receptor 1 (MCHR1). [Related pubchem assays (depositor defined):AID1861, AID1880, AID1952, AID2148, AID2251, AID2257, AID485339]; type: functional;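 further: stimulated with 30 nM MCH peptide agonist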
# Sequence of Melanin-concentrating hormone receptor 1 (Q99705 whole entry): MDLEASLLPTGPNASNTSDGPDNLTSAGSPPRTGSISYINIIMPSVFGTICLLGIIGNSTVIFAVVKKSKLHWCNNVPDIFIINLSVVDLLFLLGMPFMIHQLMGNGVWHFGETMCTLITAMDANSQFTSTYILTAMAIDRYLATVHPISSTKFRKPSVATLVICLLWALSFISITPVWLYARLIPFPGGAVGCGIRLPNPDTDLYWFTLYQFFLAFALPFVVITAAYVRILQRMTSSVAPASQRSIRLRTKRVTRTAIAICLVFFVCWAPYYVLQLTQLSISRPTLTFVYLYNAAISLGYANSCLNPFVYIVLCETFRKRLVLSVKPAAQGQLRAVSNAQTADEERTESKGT
# J774.A1 = assay: Confirmation of image-based Screening Assay for Inhibitors of Phagocytosis. [Related pubchem assays (depositor defined):AID1029, AID1643]; type: functional, cell-based; conditions: Mus musculus
# [16] = HEK-293T viability loss after treatment – luminescence, T-cell screen hits, cytotoxicity control for TCR NF-kB inhibitor project, dose response (AID 489026); type: functional, cell-based;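 further: cells exposed to compound about 14 hours before the viability readout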
# [17] = Luminescence Cell-Based Dose Response HTS to Identify Activators of Luciferase Translation or Activity in H4 […] Cells. [Related pubchem assays: 1829 (Project Summary), 1814 (Primary HTS)]; type: functional
# H4 = assay: Luminescence Cell-Based Dose Response HTS to Identify Activators of 5'UTR Stem-Loop Driven Prion Protein mRNA Translation in H4 Neuroglioblastoma Cells. [Related pubchem assays: 1829 (Project Summary), 1814 (Primary HTS)]; type: functional; conditions: Homo sapiens
# [18] = target: Polyadenylate-binding protein 1 (Homo sapiens, UniProt P11940); assay: PABP inhibition in translation initiation, SAR follow-up (AID 435018); type: functional
# Sequence of Polyadenylate-binding protein 1 (P11940 whole entry): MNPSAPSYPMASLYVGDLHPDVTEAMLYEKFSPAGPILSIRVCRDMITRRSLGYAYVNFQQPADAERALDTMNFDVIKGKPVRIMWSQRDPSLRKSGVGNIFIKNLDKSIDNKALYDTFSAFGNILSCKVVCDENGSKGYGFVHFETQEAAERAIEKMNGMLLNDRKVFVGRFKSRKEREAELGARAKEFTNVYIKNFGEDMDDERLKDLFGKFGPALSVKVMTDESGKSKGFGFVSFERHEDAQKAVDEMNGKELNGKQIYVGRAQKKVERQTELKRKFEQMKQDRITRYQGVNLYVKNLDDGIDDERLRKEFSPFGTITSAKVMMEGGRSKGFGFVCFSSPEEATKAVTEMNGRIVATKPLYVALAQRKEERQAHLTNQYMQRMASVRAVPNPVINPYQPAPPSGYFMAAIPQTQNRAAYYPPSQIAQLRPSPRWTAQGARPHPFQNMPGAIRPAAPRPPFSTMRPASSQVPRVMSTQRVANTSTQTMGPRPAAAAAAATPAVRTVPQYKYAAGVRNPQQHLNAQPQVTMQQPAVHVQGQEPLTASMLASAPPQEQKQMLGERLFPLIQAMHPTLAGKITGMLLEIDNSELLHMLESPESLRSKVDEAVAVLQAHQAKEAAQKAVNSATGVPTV
# [19] = target: Eukaryotic translation initiation factor 4H (Homo sapiens, UniProt Q15056); assay: inhibitors of translation initiation factor eIF4H – SAR follow-up (AID 435011); type: functional
# Caspase-3 = target: T4, Caspase-3 (Homo sapiens, UniProt P42574); assay: activators of human procaspase-3 D3A mutant – biochemical, absorbance, PC-3 D3A mutant, counter-screen for dual procaspase-3/7 activator project, dose response (AID 504328)
# T4 sequence (P42574 whole entry): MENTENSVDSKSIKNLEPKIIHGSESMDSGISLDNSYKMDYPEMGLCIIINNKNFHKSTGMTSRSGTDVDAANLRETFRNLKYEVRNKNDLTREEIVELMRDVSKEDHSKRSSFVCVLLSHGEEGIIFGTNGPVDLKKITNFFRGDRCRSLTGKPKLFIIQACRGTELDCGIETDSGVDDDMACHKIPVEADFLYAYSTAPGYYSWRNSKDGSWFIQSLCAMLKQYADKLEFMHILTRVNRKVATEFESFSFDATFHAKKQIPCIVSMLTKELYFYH
# Caspase-7 = Caspase-7 (Homo sapiens, UniProt P55210); assay: potency of procaspase-7 enzyme activation – biochemical, absorbance, human, dual procaspase-3/-7 activator project, dose response (AID 504330)
# [20] = target: Beta-2 adrenergic receptor (Homo sapiens, UniProt P07550); assay: ADRB2 activation measured by internalization – cell-based, FAP fluorogen, flow cytometry, cherry pick 1, dose response (AID 588763); type: functional
# Sequence of Beta-2 adrenergic receptor (P07550 whole entry): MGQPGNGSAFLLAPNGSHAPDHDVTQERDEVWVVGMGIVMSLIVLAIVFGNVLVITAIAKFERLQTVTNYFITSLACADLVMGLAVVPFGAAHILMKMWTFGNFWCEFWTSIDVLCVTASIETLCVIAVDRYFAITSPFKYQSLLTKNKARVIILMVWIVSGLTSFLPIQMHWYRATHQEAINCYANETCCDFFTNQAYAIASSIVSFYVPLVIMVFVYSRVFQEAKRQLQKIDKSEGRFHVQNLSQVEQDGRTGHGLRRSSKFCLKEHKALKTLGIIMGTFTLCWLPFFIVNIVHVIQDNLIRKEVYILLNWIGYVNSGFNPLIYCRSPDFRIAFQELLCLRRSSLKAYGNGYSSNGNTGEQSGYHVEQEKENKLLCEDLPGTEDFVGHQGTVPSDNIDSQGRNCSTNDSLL
# MDA-MB-435 = assay: cells; type: functional, cell-based; conditions: Homo sapiens
# cells [21] = type: functional, cell-based; conditions: PPC-1
# [22] = target: Heat shock cognate 71 kDa protein (Homo sapiens, UniProt P11142); assay: In Vitro Hsc70 Dose Response Fluorescence Polarization Assay. [Related pubchem assays: 1072 ]
# Sequence of Heat shock cognate 71 kDa protein (P11142 whole entry): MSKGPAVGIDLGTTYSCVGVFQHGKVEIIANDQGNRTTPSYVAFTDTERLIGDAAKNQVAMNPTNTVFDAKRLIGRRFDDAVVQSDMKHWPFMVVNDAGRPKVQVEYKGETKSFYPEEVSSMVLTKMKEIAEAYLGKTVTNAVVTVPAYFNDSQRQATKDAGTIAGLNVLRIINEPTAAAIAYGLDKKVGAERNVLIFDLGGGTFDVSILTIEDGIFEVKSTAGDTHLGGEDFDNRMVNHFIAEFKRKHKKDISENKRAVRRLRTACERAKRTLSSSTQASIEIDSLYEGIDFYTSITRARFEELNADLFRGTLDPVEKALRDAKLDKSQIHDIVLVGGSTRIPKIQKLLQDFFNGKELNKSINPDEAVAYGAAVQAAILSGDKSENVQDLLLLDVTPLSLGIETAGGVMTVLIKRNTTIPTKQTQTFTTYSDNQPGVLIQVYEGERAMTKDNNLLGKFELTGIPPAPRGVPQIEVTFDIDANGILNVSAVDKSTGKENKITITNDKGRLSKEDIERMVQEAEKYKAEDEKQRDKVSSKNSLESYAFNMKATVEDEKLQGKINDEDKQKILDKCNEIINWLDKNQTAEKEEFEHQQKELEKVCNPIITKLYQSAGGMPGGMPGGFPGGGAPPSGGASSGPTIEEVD
# [23] = target: T5, Tyrosine-protein phosphatase non-receptor type 7 (Homo sapiens, UniProt P35236); type: functional
# T5 sequence (P35236 whole entry): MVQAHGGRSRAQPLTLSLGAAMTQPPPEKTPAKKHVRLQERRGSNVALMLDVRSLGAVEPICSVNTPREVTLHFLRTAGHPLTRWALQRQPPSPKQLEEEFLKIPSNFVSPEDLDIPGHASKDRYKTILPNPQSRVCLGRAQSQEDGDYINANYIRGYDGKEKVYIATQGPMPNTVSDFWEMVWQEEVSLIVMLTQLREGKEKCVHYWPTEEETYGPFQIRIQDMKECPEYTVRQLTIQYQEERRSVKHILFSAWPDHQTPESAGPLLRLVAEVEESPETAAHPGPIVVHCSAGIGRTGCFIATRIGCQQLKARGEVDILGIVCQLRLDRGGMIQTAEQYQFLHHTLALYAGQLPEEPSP
# [24] = target: Heat shock 70 kDa protein 1A (Homo sapiens, UniProt P0DMV8); assay: inhibition of Hsp70 binding activity – biochemical, fluorescence polarization, SAR follow-up (AID 1072)
# [25] = target: T6, Dual specificity protein phosphatase 6 (Rattus norvegicus, UniProt Q64346); type: functional
# T6 sequence (Q64346 whole entry): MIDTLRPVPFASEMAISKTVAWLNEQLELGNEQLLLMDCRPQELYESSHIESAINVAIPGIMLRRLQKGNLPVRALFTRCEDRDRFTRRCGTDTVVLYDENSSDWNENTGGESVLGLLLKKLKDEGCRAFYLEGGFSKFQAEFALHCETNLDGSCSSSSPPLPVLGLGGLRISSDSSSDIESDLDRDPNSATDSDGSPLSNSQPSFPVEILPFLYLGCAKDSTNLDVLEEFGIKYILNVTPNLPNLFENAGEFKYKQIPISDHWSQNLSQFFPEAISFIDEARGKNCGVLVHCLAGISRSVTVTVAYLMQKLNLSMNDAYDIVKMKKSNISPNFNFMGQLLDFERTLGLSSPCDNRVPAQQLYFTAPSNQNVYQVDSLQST
# [26] = target: Glyceraldehyde-3-phosphate dehydrogenase (Homo sapiens, UniProt P04406)
# Sequence of Glyceraldehyde-3-phosphate dehydrogenase (P04406 whole entry): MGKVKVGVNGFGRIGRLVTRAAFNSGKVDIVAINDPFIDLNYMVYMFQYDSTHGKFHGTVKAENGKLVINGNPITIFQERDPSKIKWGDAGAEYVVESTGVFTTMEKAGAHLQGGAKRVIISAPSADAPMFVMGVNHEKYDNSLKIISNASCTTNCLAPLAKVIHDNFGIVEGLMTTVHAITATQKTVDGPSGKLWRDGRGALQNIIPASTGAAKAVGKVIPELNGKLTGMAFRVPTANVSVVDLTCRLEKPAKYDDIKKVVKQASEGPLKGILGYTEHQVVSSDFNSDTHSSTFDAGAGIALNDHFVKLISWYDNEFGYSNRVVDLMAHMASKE
# [27] = target: T6, Dual specificity protein phosphatase 6
# Sequence of Cyclin-dependent kinase 5/CDK5 activator 1 (Q00535 whole entry): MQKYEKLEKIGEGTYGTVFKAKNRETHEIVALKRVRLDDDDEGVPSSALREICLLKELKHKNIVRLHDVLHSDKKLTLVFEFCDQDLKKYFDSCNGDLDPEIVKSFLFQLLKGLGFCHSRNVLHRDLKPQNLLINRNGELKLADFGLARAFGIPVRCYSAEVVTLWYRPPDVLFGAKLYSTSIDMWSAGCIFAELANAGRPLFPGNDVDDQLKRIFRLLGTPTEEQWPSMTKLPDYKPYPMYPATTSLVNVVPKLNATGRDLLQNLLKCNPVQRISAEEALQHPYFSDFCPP
# Sequence of Cyclin-dependent kinase 5/CDK5 activator 1 (Q15078 whole entry, further chain): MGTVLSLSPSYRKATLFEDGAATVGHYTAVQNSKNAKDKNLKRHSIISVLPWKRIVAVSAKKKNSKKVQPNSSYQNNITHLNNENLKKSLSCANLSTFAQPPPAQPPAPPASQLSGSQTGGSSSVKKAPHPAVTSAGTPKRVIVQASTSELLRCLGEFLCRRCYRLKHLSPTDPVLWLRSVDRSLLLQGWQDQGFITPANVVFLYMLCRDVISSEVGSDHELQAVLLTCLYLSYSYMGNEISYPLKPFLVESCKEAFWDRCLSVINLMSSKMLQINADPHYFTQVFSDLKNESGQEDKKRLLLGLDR
compound,measurement,setting,value
CC(C)Oc1ccc(NC(=O)Oc2ccccc2)cc1,AC50,[1],129 µM (active)
CSc1ccc(NC(=O)Nc2cccn(Cc3ccccc3)c2=O)cc1,CC50,[2],> 40 µM (active)
same,IC50,[3],> 100 µM (active)
same,CC50,[4],> 40 µM (active)
same,IC50,cells [5],11.4 µM (active)
same,CC50,[6],> 20 µM (active)
N#C/C(=C\c1ccc(N2CCCCC2)o1)C(N)=O,EC50,[7],> 100 µM (active)
same,IC50,[8],6.55 µM (active)
same,IC50,Insulin-degrading enzyme,8.72 µM (active)
same,IC50,[9],> 55.7 µM (not active)
CC(C)N(CCNC(=O)c1ccc(CNS(=O)(=O)c2ccc(C3CCCCC3)cc2)cc1)Cc1ccccc1,IC50,[10],> 32 µM (inactive)
same,IC50,[11],> 20 µM (inactive)
same,IC50,[12],> 20 µM (inactive)
same,IC50,Mu-type opioid receptor,2.47 µM (active)
same,IC50,[13],1.22 µM (active)
Cc1ccc(-n2ncc(Cl)c(Oc3ccc(F)cc3C)c2=O)cc1,IC50,[14],10 µM (active)
same,IC50,[15],17 µM (inactive)
Cc1cc(=O)oc2cc(OCC3CC(c4ccccc4Cl)=NO3)ccc12 (centres undefined),IC50,J774.A1,> 25 µM (inactive)
same,IC50,[16],> 80 µM (inactive)
same,EC50,[17],11.7 µM (active)
same,EC50,H4,> 120 µM (not active)
COc1cccc(/C=C2/NC(=O)N(CC(=O)Nc3ccc(C)cc3)C2=O)c1OCc1cccc(C(=O)O)c1,IC50,[18],> 100 µM (inactive)
same,IC50,[19],10.6 µM (active)
COc1ccc(C(=O)N/N=C/c2ccc3cccc(OCc4ccccc4)c3n2)cc1,EC50,Caspase-3,> 85.3 µM (inactive)
same,EC50,Caspase-7,> 85.3 µM (inactive)
CC(Sc1nc(-c2ccccc2)cc(C(F)(F)F)n1)C(=O)N1CCCC1 (centres undefined),EC50,[20],0.243 µM (active)
same,IC50,MDA-MB-435,> 10 µM (inactive)
same,IC50,cells [21],> 10 µM (inactive)
O=C(O)c1ccc2c(c1)C1C=CCC1C(C(=O)O)N2 (centres undefined),IC50,[22],> 100 µM (not active)
same,IC50,[23],2.51 µM (active)
same,IC50,[24],2.42 µM (active)
same,IC50,[25],15.5 µM (active)
same,IC50,[26],> 100 µM (not active)
same,IC50,[27],17.8 µM (active)
